Source: patent publication US10583137B2, “Triazole DAGLα inhibitors” (THE SCRIPPS RESEARCH INSTITUTE, priority 2015, dated 2020)

Key:
DAGLα (hDAGLα-FLAG) = DAGLα (hDAGLα-FLAG) (Homo sapiens (Human), UniProt Q9Y4D2); assay: competitive ABPP, membrane proteome of transfected HEK293T cells; type: biochemical; conditions: for IC50: read-out: DAGLα IC50; for inhibition at 0.8 µM: 0.8 μM (stated under the cell), read-out: DAGLα % inh. 0.8 μM; for inhibition at 0.0032 µM: 3.2 nM, read-out: DAGLα % inh. 3.2 nM; for inhibition at 0.4 µM: read-out: DAGLα % inh. 0.4 μM
Sequence of DAGLα (hDAGLα-FLAG) (Q9Y4D2 whole entry): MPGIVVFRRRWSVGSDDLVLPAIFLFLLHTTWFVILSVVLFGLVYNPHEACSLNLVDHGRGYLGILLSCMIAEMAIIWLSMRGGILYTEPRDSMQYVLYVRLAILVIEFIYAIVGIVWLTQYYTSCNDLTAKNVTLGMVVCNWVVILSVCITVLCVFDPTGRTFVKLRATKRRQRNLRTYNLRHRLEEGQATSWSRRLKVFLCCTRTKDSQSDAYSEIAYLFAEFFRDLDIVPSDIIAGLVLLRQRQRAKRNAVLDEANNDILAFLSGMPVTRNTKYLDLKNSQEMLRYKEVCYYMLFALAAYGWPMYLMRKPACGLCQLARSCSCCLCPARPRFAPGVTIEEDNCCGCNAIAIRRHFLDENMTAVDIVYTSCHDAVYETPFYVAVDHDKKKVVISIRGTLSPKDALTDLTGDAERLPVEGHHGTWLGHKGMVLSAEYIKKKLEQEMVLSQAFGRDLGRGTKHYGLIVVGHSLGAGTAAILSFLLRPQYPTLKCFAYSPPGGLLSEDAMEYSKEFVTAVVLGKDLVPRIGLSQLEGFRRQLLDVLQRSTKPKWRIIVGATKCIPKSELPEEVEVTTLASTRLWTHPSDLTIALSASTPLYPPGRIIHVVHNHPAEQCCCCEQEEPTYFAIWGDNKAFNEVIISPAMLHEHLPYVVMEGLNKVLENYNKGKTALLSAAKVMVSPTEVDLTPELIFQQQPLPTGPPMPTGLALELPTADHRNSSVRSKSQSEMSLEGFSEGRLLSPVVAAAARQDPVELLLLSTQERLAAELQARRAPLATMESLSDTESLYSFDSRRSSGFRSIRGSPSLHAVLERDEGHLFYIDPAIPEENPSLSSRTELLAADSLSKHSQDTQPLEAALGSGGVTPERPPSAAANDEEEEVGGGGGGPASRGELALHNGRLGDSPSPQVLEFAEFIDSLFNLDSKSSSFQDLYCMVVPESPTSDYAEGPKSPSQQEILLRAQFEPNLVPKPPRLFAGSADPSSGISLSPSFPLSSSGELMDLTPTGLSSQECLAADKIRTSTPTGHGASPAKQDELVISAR
Description: (§1) Compounds 19 and 20 were tested for in vitro inhibition of DAGLα and DAGLβ as measured by competitive activity-based protein profiling (ABPP) of […] using a HT-01 probe (targets DAGLα and DAGLβ) and a FP-Rh probe (targets serine hydrolases).
(§2) Briefly, membrane proteome (1 mg/ml, 20 μL) was prepared from HEK293T cells (transiently transfected with hDAGLα-FLAG or hDAGLα-S472A-FLAG, hDAGLβ-FLAG or hDAGLβ-S443A-FLAG) as described in Example 16. The proteome was incubated at room temperature with vehicle (DMSO) or compound in 0.5 μL DMSO for 30 min. The membrane proteome sample was subsequently treated for 30 min with HT-01 probe (1 μM) or FP-Rh probe (1 μM). The reactions were quenched with 10 μL 3× Laemmli sample buffer (final concentrations: 60 mM Tris-Cl pH 6.8, 2% (w/v) SDS, 10% (v/v) glycerol, 5% (v/v) (3-mercaptoethanol, 0.01% (v/v) bromophenol blue). The samples were directly loaded and resolved on SDS page gel (10% acrylamide). The gels were scanned using a ChemiDoc MP system (Cy3 settings, 605/50 filter).
(§3) The resolved proteins were transferred from the gels to a polyvinyldifluoride membrane for Western Blotting using a Trans-Blot® Turbo (BioRad). FLAG-tagged enzymes were stained using rabbit anti-FLAG as primary antibody, and goat-anti-rabbit HRP as secondary antibody. The blot was developed in the dark using a 10 mL luminal solution, 100 μL ECL enhancer and 3 μL H2O2. Chemiluminescence was visualized using a ChemiDoc XRS (BioRad).
(§4) The percentage of DAGL activity remaining in the assayed samples was determined by measuring the integrated optical intensity of the fluorescent protein bands of the Western Blot using image lab 4.1. The relative intensity was compared to the vehicle (DMSO) treated proteins, which were set to 100%. IC50 values were determined by plotting a log(inhibitor) vs. normalized response (Variable slope) dose-response curve generated using Prism software (GraphPad).

DAGLβ (hDAGLβ-FLAG) = DAGLβ (hDAGLβ-FLAG) (Homo sapiens (Human), UniProt Q8NCG7); assay: as above; type: biochemical; conditions: for IC50: read-out: DAGLβ IC50; for inhibition at 0.8 µM: 0.8 μM (stated under the cell), read-out: DAGLβ % inh. 0.8 μM; for inhibition at 0.0032 µM: read-out: DAGLβ % inh. 3.2 nM; for inhibition at 0.4 µM: read-out: DAGLβ % inh. 0.4 μM
Sequence of DAGLβ (hDAGLβ-FLAG) (Q8NCG7 whole entry): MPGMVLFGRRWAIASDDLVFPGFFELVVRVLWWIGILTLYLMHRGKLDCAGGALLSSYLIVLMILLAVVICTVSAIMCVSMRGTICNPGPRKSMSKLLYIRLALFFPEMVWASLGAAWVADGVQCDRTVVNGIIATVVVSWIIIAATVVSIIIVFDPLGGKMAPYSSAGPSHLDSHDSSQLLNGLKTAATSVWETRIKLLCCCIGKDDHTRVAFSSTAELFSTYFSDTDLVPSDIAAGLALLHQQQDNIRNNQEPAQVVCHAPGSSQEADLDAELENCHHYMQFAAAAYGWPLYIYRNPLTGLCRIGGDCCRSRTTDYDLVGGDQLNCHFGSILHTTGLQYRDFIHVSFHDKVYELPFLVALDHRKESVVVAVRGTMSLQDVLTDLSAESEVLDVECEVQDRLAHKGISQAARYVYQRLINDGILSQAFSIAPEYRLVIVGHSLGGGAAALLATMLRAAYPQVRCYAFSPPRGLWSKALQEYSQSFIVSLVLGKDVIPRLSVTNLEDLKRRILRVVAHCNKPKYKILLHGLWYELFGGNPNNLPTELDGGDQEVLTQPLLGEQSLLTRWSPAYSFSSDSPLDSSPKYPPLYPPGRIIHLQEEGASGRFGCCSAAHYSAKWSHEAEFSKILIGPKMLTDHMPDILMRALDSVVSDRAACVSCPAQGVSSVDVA
Description: as §1, §2, §3, §4

SMILES	IC50 (DAGLα (hDAGLα-FLAG)) [µM]	IC50 (DAGLβ (hDAGLβ-FLAG)) [µM]	other results
CS(=O)(=O)OCc1ccc(-c2cn(C(=O)N3CCCCC3Cc3ccccc3)nn2)cc1 (stereo not drawn) [Compound 91, 4-(1-(2-benzylpiperidine-1-carbonyl)-1H-1,2,3-triazol-4-yl)benzyl methanesulfonate]	≤ 0.4	2 to 10	–
CN(C)C(=O)c1cccc(-c2ccc(-c3cn(C(=O)N4CCCCC4Cc4ccccc4)nn3)cc2)c1 (stereo not drawn) [Compound 76, 4′-(1-(2-benzylpiperidine-1-carbonyl)-1H-1,2,3-triazol-4-yl)-N,N-dimethyl-[1,1′-biphenyl]-3-carboxamide]	0.4 to 2	> 10	–
O=C(N1CCCCC1Cc1ccccc1)n1cc(-c2ccc(-c3c(Cl)cncc3Cl)cc2)nn1 (stereo not drawn) [Compound 73, (2-benzylpiperidin-1-yl)(4-(4-(3,5-dichloropyridin-4-yl)phenyl)-1H-1,2,3-triazol-1-yl)methanone]	≤ 0.4	≤ 0.4	–
N#Cc1ccc(-c2cn(C(=O)N3CCCCC3Cc3ccccc3)nn2)cc1 (stereo not drawn) [Compound 88, 4-(1-(2-benzylpiperidine-1-carbonyl)-1H-1,2,3-triazol-4-yl)benzonitrile]	≤ 0.4	≤ 0.4	–
CC(C)(C)OC(=O)N1CCN(C(=O)n2ncc(-c3ccc(OC(F)(F)F)cc3)n2)C(c2ccccc2)C1 (stereo not drawn) [Compound 23, tert-butyl 3-phenyl-4-(4-(4-(trifluoromethoxy)phenyl)-2H-1,2,3-triazole-2-carbonyl)piperazine-1-carboxylate]	–	–	inhibition at 0.8 µM (DAGLα (hDAGLα-FLAG)): 0 to 25%; inhibition at 0.8 µM (DAGLβ (hDAGLβ-FLAG)): 0 to 25%
COc1ccc(-c2cn(C(=O)N3CCCCC3Cc3ccccc3)nn2)cc1 (stereo not drawn) [Compound 87, (2-benzylpiperidin-1-yl)(4-(4-methoxyphenyl)-1H-1,2,3-triazol-1-yl)methanone]	≤ 0.4	≤ 0.4	–
CN(C)C(=O)c1ccc(-c2ccc(-c3cn(C(=O)N4CCCCC4Cc4ccccc4)nn3)cc2)cc1 (stereo not drawn) [Compound 75, 4′-(1-(2-benzylpiperidine-1-carbonyl)-1H-1,2,3-triazol-4-yl)-N,N-dimethyl-[1,1′-biphenyl]-4-carboxamide]	2 to 10	> 10	–
O=C(N1CCC=C[C@H]1COCc1ccccc1)n1cc(-c2ccc(OC(F)(F)F)cc2)nn1 [Compound 108, (S)-(6-((benzyloxy)methyl)-3,6-dihydropyridin-1(2H)-yl)(4-(4-(trifluoromethoxy)phenyl)-1H-1,2,3-triazol-1-yl)methanone]	–	–	inhibition at 0.0032 µM (DAGLα (hDAGLα-FLAG)): 0 to 25%; inhibition at 0.0032 µM (DAGLβ (hDAGLβ-FLAG)): 0 to 25%
COc1cc(C(=O)N(C)C)cc(OC)c1-c1ccc(-c2cn(C(=O)N3CCCCC3Cc3ccccc3)nn2)cc1 (stereo not drawn) [Compound 80, 4′-(1-(2-benzylpiperidine-1-carbonyl)-1H-1,2,3-triazol-4-yl)-2,6-dimethoxy-N,N-dimethyl-[1,1′-biphenyl]-4-carboxamide]	0.4 to 2	> 10	–
COc1ccc(-c2ccc(-c3cn(C(=O)N4CCCCC4Cc4ccccc4)nn3)cc2)c(OC)c1 (stereo not drawn) [Compound 62, (2-benzylpiperidin-1-yl)(4-(2′,4′-dimethoxy-[1,1′-biphenyl]-4-yl)-1H-1,2,3-triazol-1-yl)methanone]	≤ 0.4	2 to 10	–
O=C(N1CCCCC1COc1ccccc1)n1ncc(-c2ccc(OC(F)(F)F)cc2)n1 (stereo not drawn) [Compound 111, (2-(phenoxymethyl)piperidin-1-yl)(4-(4-(trifluoromethoxy)phenyl)-2H-1,2,3-triazol-2-yl)methanone]	–	–	inhibition at 0.0032 µM (DAGLα (hDAGLα-FLAG)): 0 to 25%; inhibition at 0.0032 µM (DAGLβ (hDAGLβ-FLAG)): 0 to 25%
CC(C)(C)OC(=O)N1CCN(C(=O)n2ncc(-c3ccc(OC(F)(F)F)cc3)n2)C(Cc2ccccc2)C1 (stereo not drawn) [Compound 99, tert-butyl 3-benzyl-4-(4-(4-(trifluoromethoxy)phenyl)-2H-1,2,3-triazole-2-carbonyl)piperazine-1-carboxylate]	–	–	inhibition at 0.4 µM (DAGLα (hDAGLα-FLAG)): 0 to 25%; inhibition at 0.4 µM (DAGLβ (hDAGLβ-FLAG)): 0 to 25%
O=C(N1C[C@H](O)C=C[C@@H]1COCc1ccccc1)n1ncc(-c2ccc(OC(F)(F)F)cc2)n1 [Compound 51, ((3R,6R)-6-((Benzyloxy)methyl)-3-hydroxy-3,6-dihydropyridin-1(2H)-yl)(4-(4-(trifluoromethoxy)phenyl)-2H-1,2,3-triazol-2-yl)methanone]	–	–	inhibition at 0.0032 µM (DAGLα (hDAGLα-FLAG)): 0 to 25%; inhibition at 0.0032 µM (DAGLβ (hDAGLβ-FLAG)): 0 to 25%
COc1cc(OC)c(-c2cn(C(=O)N3CCCCC3Cc3ccccc3)nn2)c(OC)c1 (stereo not drawn) [Compound 84, (2-benzylpiperidin-1-yl)(4-(2,4,6-trimethoxyphenyl)-1H-1,2,3-triazol-1-yl)methanone]	> 10	2 to 10	–
O=C(N1C[C@@H](O)C=C[C@@H]1Cc1ccccc1)n1ncc(-c2ccc(OC(F)(F)F)cc2)n1 [Compound 115, ((3S,6S)-6-benzyl-3-hydroxy-3,6-dihydropyridin-1(2H)-yl)(4-(4-(trifluoromethoxy)phenyl)-2H-1,2,3-triazol-1-yl)methanone]	–	–	inhibition at 0.0032 µM (DAGLα (hDAGLα-FLAG)): 0 to 25%; inhibition at 0.0032 µM (DAGLβ (hDAGLβ-FLAG)): 0 to 25%
O=C(N1CCCCC1Cc1ccccc1)n1cc(-c2ccc(-c3c(F)cncc3F)cc2)nn1 (stereo not drawn) [Compound 72, (2-benzylpiperidin-1-yl)(4-(4-(3,5-difluoropyridin-4-yl)phenyl)-1H-1,2,3-triazol-1-yl)methanone]	0.4 to 2	0.4 to 2	–
CN(C)Cc1ccc(-c2cn(C(=O)N3CCCCC3Cc3ccccc3)nn2)cc1 (stereo not drawn) [Compound 92, (2-benzylpiperidin-1-yl)(4-(4-((dimethylamino)methyl)phenyl)-1H-1,2,3-triazol-1-yl)methanone]	2 to 10	2 to 10	–
CC(C)OC(=O)N1CCN(C(=O)n2cc(-c3ccc(OC(F)(F)F)cc3)nn2)C(Cc2ccccc2)C1 (stereo not drawn) [Compound 96, isopropyl 3-benzyl-4-(4-(4-(trifluoromethoxy)phenyl)-1H-1,2,3-triazole-1-carbonyl)piperazine-1-carboxylate]	–	–	inhibition at 0.4 µM (DAGLα (hDAGLα-FLAG)): ≥ 75%; inhibition at 0.4 µM (DAGLβ (hDAGLβ-FLAG)): 50 to 75%
C#CCCCC(=O)N1CCN(C(=O)n2ncc(-c3ccc(OC(F)(F)F)cc3)n2)C(Cc2ccccc2)C1 (stereo not drawn) [Compound 35, 1-(3-benzyl-4-(4-(4-(trifluoromethoxy)phenyl)-2H-1,2,3-triazole-2-carbonyl)piperazin-1-yl)hex-5-yn-1-one]	–	–	inhibition at 0.8 µM (DAGLα (hDAGLα-FLAG)): 0 to 25%; inhibition at 0.8 µM (DAGLβ (hDAGLβ-FLAG)): 0 to 25%
COc1cc(C(N)=O)cc(OC)c1-c1ccc(-c2cn(C(=O)N3CCCCC3Cc3ccccc3)nn2)cc1 (stereo not drawn) [Compound 78, 4′-(1-(2-benzylpiperidine-1-carbonyl)-1H-1,2,3-triazol-4-yl)-2,6-dimethoxy-[1,1′-biphenyl]-4-carboxamide]	0.4 to 2	> 10	–
CC(C)C(=O)N1CCN(C(=O)n2ncc(-c3ccc(OC(F)(F)F)cc3)n2)C(Cc2ccccc2)C1 (stereo not drawn) [Compound 27, 1-(3-benzyl-4-(4-(4-(trifluoromethoxy)phenyl)-2H-1,2,3-triazole-2-carbonyl)piperazin-1-yl)-2-methylpropan-1-one]	–	–	inhibition at 0.8 µM (DAGLα (hDAGLα-FLAG)): 0 to 25%; inhibition at 0.8 µM (DAGLβ (hDAGLβ-FLAG)): 0 to 25%

Now from value to molecule, other results behind:

IC50 (DAGLα (hDAGLα-FLAG)) [µM]	IC50 (DAGLβ (hDAGLβ-FLAG)) [µM]	SMILES	other results
≤ 0.4	≤ 0.4	CC(C)(C)CN(CCc1ccncc1)C(=O)n1cc(-c2ccc(OC(F)(F)F)cc2)nn1 [Compound 132, N-neopentyl-N-(2-(pyridin-4-yl)ethyl)-4-(4-(trifluoromethoxy)phenyl)-1H-1,2,3-triazole-1-carboxamide]	–
≤ 0.4	≤ 0.4	O=C(N(CCc1ccccc1)C1CCC1)n1cc(-c2ccc(OC(F)(F)F)cc2)nn1 [Compound 124, N-cyclobutyl-N-phenethyl-4-(4-(trifluoromethoxy)phenyl)-1H-1,2,3-triazole-1-carboxamide]	–
2 to 10	0.4 to 2	O=C(N(CCc1ccccc1)CC1CC1)n1ncc(-c2ccc(OC(F)(F)F)cc2)n1 [Compound 131, N-(cyclopropylmethyl)-N-phenethyl-4-(4-(trifluoromethoxy)phenyl)-2H-1,2,3-triazole-1-carboxamide]	–
≤ 0.4	≤ 0.4	CC(C)(C)CN(CCc1cccnc1)C(=O)n1cc(-c2ccc(OC(F)(F)F)cc2)nn1 [Compound 134, N-neopentyl-N-(2-(pyridin-3-yl)ethyl)-4-(4-(trifluoromethoxy)phenyl)-1H-1,2,3-triazole-1-carboxamide]	–
2 to 10	–	CCC(CC)CN(CCc1ccccc1)C(=O)n1ncc(-c2ccc(OC(F)(F)F)cc2)n1 [Compound 126, N-(2-ethylbutyl)-N-phenethyl-4-(4-(trifluoromethoxy)phenyl)-2H-1,2,3-triazole-2-carboxamide]	–
